Data: publication PMC6514686, “Tri-Cyclic Nucleobase Analogs and Their Ribosides as Substrates of Purine-Nucleoside Phosphorylases. II Guanine and Isoguanine Derivatives” (Molecules, 2019)
Read-outs that look alike come from different tables or passages of the source.

Experiments:
[1] = target: T1, E. coli PNP (Escherichia coli, UniProt P0ABP8); experiment: phosphorolysis of nucleosides in phosphate buffer by E. coli PNP; format: biochemical; conditions: for phosphorolysis (in words): 50 mM phosphate buffer, pH 6.5
T1 construct: made in house; host or cells: E. coli
Protocol: (§1) For kinetic analyses, enzymatic ribosylation reactions were carried out in 1 mL cuvettes (pathlength 4 mm) in ~50 mM HEPES buffer, pH 7.3, using ca. 0.5 mM R1P as a ribose source. On a larger scale, reactions were run in Eppendorf tubes, volume 2–3 mL, using either R1P or 7-methylguanosine as ribose sources. Phosphorolysis reactions were run in 50 mM phosphate buffer, pH 7.0 or 6.5. Data were analyzed by standard methods (see Supplementary Materials).

[2] = target: T2, calf PNP (Bos taurus, UniProt P55859); experiment: phosphorolysis of nucleosides in phosphate buffer by calf PNP; format: biochemical
T2 construct: made in house; host or cells: E. coli
T2 sequence (P55859 1-289): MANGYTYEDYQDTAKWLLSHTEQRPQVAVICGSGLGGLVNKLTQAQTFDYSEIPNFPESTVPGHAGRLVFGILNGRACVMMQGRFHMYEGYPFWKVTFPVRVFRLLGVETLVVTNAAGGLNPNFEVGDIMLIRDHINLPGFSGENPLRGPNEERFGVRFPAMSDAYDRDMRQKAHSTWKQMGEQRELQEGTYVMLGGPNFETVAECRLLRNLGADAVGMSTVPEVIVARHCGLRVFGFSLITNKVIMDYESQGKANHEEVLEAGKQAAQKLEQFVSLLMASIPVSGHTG
Protocol: as §1

[3] = target: T3, E.coli PNP-wt (purine-nucleoside phosphorylase) (Escherichia coli, UniProt P0ABP8); experiment: enzymatic ribosylation of nucleobase analogs by α-D-ribose-1-phosphate, E. coli PNP wild type; format: biochemical; conditions: for Vmax (relative): relative to Vmax of guanine ribosylation under the same conditions (=100), 40 mM HEPES, pH 7, error ~10%
T3 construct: made in house; host or cells: E. coli
T3 sequence (P0ABP8 2-239 limits assumed): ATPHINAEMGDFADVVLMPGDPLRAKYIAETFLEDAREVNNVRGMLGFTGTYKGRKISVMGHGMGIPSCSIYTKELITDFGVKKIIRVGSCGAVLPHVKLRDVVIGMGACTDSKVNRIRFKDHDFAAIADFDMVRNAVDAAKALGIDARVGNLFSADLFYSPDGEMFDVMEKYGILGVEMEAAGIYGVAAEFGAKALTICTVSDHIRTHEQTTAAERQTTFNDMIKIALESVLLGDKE
Protocol: as §1, with “For kinetic analyses, enzymatic ribosylation reactions were carried out in 1 mL cuvettes (pathlength 4 mm) in ~50 mM HEPES buffer, pH 7.3, using ca.” left out
(§2) Recombinant E. coli and calf spleen PNPs as well as their mutated forms were expressed in E. coli and purified according to the procedures described earlier.

[4] = target: T4, E.coli PNP-mutantD204N (Escherichia coli, UniProt P0ABP8, D205N); experiment: enzymatic ribosylation by α-D-ribose-1-phosphate, E. coli PNP D204N mutant; format: biochemical; conditions: for Vmax (relative): relative to Vmax of guanine ribosylation under the same conditions (=100), 40 mM HEPES, pH 7, error ~10%
T4 construct: made in house; host or cells: E. coli
T4 sequence (P0ABP8 2-239 D205N): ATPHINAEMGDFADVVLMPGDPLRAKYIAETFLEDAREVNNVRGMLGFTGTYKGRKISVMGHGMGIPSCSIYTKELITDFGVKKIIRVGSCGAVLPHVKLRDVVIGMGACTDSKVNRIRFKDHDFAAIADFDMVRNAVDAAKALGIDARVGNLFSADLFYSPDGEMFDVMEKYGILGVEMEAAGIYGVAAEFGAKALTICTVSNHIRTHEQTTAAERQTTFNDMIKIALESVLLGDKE
Protocol: as §1, §2

[5] = target: T5, calf PNP-wt (calf spleen purine-nucleoside phosphorylase) (Bos taurus, UniProt P55859); experiment: enzymatic ribosylation by α-D-ribose-1-phosphate, calf PNP wild type; format: biochemical; conditions: for Vmax (relative): relative to Vmax of guanine ribosylation under the same conditions (=100), 40 mM HEPES, pH 7, error ~10%
T5 construct: made in house; host or cells: E. coli
T5 sequence (P55859 1-289): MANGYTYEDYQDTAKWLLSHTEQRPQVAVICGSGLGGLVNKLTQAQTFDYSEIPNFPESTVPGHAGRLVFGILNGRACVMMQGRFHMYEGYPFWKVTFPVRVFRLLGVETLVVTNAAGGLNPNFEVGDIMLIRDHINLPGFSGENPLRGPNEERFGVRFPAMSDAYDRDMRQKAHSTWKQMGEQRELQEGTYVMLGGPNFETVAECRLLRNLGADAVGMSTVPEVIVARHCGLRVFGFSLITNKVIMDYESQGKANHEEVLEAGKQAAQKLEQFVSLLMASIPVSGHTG
Protocol: as §1, §2

[6] = target: T6, calf PNP-mutantN243D (Bos taurus, UniProt P55859, N243D); experiment: enzymatic ribosylation by α-D-ribose-1-phosphate, calf PNP N243D mutant; format: biochemical
T6 construct: made in house; host or cells: E. coli
T6 sequence (P55859 1-289 N243D): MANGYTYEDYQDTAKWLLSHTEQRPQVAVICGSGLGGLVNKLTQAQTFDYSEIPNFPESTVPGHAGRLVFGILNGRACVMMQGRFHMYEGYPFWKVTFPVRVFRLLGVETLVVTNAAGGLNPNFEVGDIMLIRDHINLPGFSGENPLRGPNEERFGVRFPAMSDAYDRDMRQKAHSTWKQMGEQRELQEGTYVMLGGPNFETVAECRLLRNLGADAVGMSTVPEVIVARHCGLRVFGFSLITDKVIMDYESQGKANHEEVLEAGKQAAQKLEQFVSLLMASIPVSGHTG
Protocol: as §1, §2

[7] = ionization constants (spectrophotometric titrations)
[8] = target: T1, E. coli PNP; set-up: method as in PMID 29376769; conditions: cited from earlier work
[9] = target: T2, calf PNP; set-up: method as in PMID 29376769; conditions: cited from earlier work
[10] = target: T1, E. coli PNP; experiment: inhibition of guanine ribosylation catalyzed by E. coli PNP; format: biochemical
Protocol: We conclude that inability of the enzyme to ribosylate (2) is not due to geometric hindrance, but rather should be ascribed to unfavorable energetic factors, in accordance with previous reports about the relative instability of the glycosidic bond in this compound [23].
(§3) N^2,3-etheno-O^6-methylguanine (3) effectively competes with guanine in the ribosylation process, acting as quasi inhibitor of the E. coli PNP, with estimated Kiapp value 7.5 ± 0.8 μM (competitive model; average of 3 determinations), in agreement with the Km value, estimated from kinetic data (see the previous paragraph).
as §1

[11] = target: T2, calf PNP; experiment: inhibition of guanine ribosylation catalyzed by calf PNP; format: biochemical; conditions: similar conditions as with E. coli PNP
Protocol: as §3, §1

[12] = substrate: O=c1c2[nH]cnc2nc2[nH]ccn12; experiment: enzymatic ribosylation of nucleobase analogs by α-D-ribose-1-phosphate, E. coli PNP wild type; format: biochemical; conditions: other: ribosylation, 40 mM HEPES buffer, pH 7, α-D-ribose-1-phosphate, standard errors ~15%
Protocol: as §1, with “For kinetic analyses, enzymatic ribosylation reactions were carried out in 1 mL cuvettes (pathlength 4 mm) in ~50 mM HEPES buffer, pH 7.3, using ca.” left out
as §2

[13] = 40 mM HEPES buffer, pH 7, α-D-ribose-1-phosphate
[14] = aqueous, pKa ±0.1, lower (basic) value, protonation to the cation
[15] = aqueous, pKa ±0.1, upper (acidic) value, deprotonation to the monoanion
[16] = no reaction traces even with 10-fold higher enzyme concentrations

## 1,N^6-etheno-N7-β-D-ribosylisoguanosine [N7-riboside (6)]
[1]
  phosphorolysis (in words): Even more rapid

## 1,N^6-etheno-N^6-β-D-ribosylisoguanosine [N^6-riboside (7)]
[1]
  phosphorolysis (in words): much more rapidly
[2]
  phosphorolysis (in words): only slowly deribosylated

## 1,N^6-ethenoisoguanine
[3]; 50 mM HEPS buffer, pH 7.3, R1P 0.5 mM, 25 °C (Figure S3), read-out: Km from double-reciprocal plots
  Km: 98 µM
[3]
  Vmax (relative): ~24
[3]; ribosylation, 40 mM HEPES buffer, pH 7, α-D-ribose-1-phosphate, standard errors ~15%, read-out: Km
  Km: 98 µM
[4]
  Vmax (relative): >5
[5]
  Vmax (relative): 1.6
[5]; ribosylation, 40 mM HEPES buffer, pH 7, α-D-ribose-1-phosphate, standard errors ~15%
  Km: ~160 µM
[6]; [13]
  Approximate Product Ratio: N9: N7-riboside: N^6-riboside: predominantly N^6
[6]; relative to Vmax of guanine ribosylation under the same conditions (=100), 40 mM HEPES, pH 7, error ~10%
  Vmax (relative): ~1
[7]; aqueous, protonation to the cation
  pKa ±0.1, lower (basic) value: 3.5
[7]; spectrophotometric titration, pH 2.9 to 5.5, ±0.2 (Figure S2)
  fitted pKa, lower (basic) value: 3.5
[7]; spectrophotometric titration, pH 6.25 to 11.5, ±0.2 (Figure S2)
  fitted pKa, upper (acidic) value: 8.1
[7]; spectrophotometric titrations
  pH of probable second deprotonation: ~ 13

## O=c1c2nc[nH]c2[nH]c2nccn12 [1,N^2-ethenoguanine, 5,9-dihydro-9-oximidazo{1,2-a}purine]
[3]; [13]
  Approximate Product Ratio: N9: N7-riboside: N^6-riboside: predominantly N9
[3]
  Vmax (relative): 18
[3]; ribosylation, product identical to the chemically generated nucleoside
  share of the one main product in the reaction mixture (HPLC): > 95%
[4]; [13]
  Approximate Product Ratio: N9: N7-riboside: N^6-riboside: predominantly N9
[4]
  Vmax (relative): >15
[5]; [13]
  Approximate Product Ratio: N9: N7-riboside: N^6-riboside: predominantly N9
[5]; pH 7.3, HEPES buffer, 25 °C
  ribosylation rate, fold slower than the ribosylation of guanine: ca. 100 fold
[5]
  Vmax (relative): <0.5
[6]; pH 7.3, HEPES buffer, 25 °C
  ribosylation rate, fold slower than the ribosylation of guanine: ca. 100 fold
[7]; [14]
  pKa: ~2
[7]; [15]
  pKa: ~9.5

## O=c1c2ncn([C@@H]3O[C@H](CO)[C@@H](O)[C@H]3O)c2nc2[nH]ccn12 [1,N^2-ethenoguanosine]
[2]
  phosphorolysis (in words): no marked phosphorolysis
[7]; [15]
  pKa: 8.8

## OC[C@H]1O[C@@H](n2cnc3c2ncn2ccnc32)[C@H](O)[C@@H]1O [1,N^6-ethenoadenosine]
[8]
  phosphorolysis (in words): rapidly phosphorolysed
[9]
  phosphorolysis (in words): resistant

## O=c1[nH]c2c(ncn2[C@@H]2O[C@H](CO)[C@@H](O)[C@H]2O)c2nccn12 [N9-riboside (5), 1,N^6-etheno-N9-β-D-ribosylisoguanosine]
[1]
  phosphorolysis (in words): fairly rapid
[2]
  phosphorolysis (in words): not phosphorolysed
[7]; [14]
  pKa: 2.4
[7]; [15]
  pKa: 7.1

## COc1nc2nccn2c2[nH]cnc12 [N^2,3-etheno-O^6-methylguanine]
[3]
  Vmax (relative): ~0.3
[5]
  Vmax (relative): <0.1
[10]; competition with guanine in ribosylation, competitive model, average of 3 determinations, read-out: estimated Kiapp
  Ki: 7.5 ± 0.8 µM
[11]
  inhibition of guanine ribosylation (in words): no such inhibition is observed
[7]; [14]
  pKa: ~3.5
[7]; [15]
  pKa: ~9

## O=c1nc2[nH]ccn2c2nc[nH]c12 [N^2,3-ethenoguanine]
[3]; [16]
  substrate activity in ribosylation (in words): not a substrate
[3]
  Vmax (relative): <0.1
[5]; [16]
  substrate activity in ribosylation (in words): not a substrate
[5]
  Vmax (relative): <0.1
[10]; guanine as substrate of the ribosylation reaction, possibly competitive inhibition, read-out: estimated Ki
  Ki: 38 µM
[7]; [14]
  pKa: ~2.5
[7]; [15]
  pKa: 8.8

## Nc1nc(=O)[nH]c2c1ncn2[C@@H]1O[C@H](CO)[C@@H](O)[C@H]1O [isoguanosine, reference compound]
[1]; data not shown
  Vmax of phosphorolysis, fold lower than that for guanosine: ca. 40 fold
[2]
  phosphorolysis (in words): did not see any such reaction

B1: E.coli PNP-wt (purine-nucleoside phosphorylase) (Escherichia coli K-12) (protein)
chain: ATPHINAEMGDFADVVLMPGDPLRAKYIAETFLEDAREVNNVRGMLGFTGTYKGRKISVMGHGMGIPSCSIYTKELITDFGVKKIIRVGSCGAVLPHVKLRDVVIGMGACTDSKVNRIRFKDHDFAAIADFDMVRNAVDAAKALGIDARVGNLFSADLFYSPDGEMFDVMEKYGILGVEMEAAGIYGVAAEFGAKALTICTVSDHIRTHEQTTAAERQTTFNDMIKIALESVLLGDKE
notes: made in house; host or cells: E. coli
[12]
  Km: 48 µM
